Test results: patent US11371097B2, “Articles for diagnosis of liver fibrosis” (THE GOVERNMENT OF THE UNITED STATES, as represented by THE …, priority 2015, dated 2022)
Several values for one entry are separate records, joined by “and”; a condition that tells them apart may be missing. Equal values may be shown once. Read-outs that look alike come from different tables or passages of the source.

How the values were obtained:
[1] = assay type: in vivo, Male Sprague-Dawley rats
Procedure: (§1) In vivo rat experiments were performed at Integrated Laboratory Systems (ILS, Research Triangle Park, NC). ILS's Institutional Animal Care and Use Committee approved all experimental procedures. Research was conducted in compliance with the Animal Welfare Act, and other Federal statutes and regulations relating to animals and experiments involving animals and adheres to principles stated in the “Guide for Care and Use of Laboratory Animals” as prepared by the Committee on Care and Use of Laboratory Animals of the Institute of Laboratory Animal Resources, National Research Council in facilities that are fully accredited by the Association for Assessment and Accreditation of Laboratory Animal Care, International. Male Sprague-Dawley rats (CD IGS [CRL:CD (SD)]) were purchased from Charles River Laboratories (Stone Ridge, N.Y.). Rats weighing 215-245 g (8 weeks old) were used. Briefly, rats were housed two per cage with a rat tunnel enrichment device (Bio-Serve, Frenchtown, N.J.). Rats were fed a Purina Rodent Diet No. 5002 (Ralston Purina Co., St. Louis, Mo.), supplied ad libitum. Animals received reverse osmosis-treated tap water (City of Durham, N.C.) ad libitum, which was changed at least once weekly. Controls in the animal rooms were set to maintain temperatures between 20-In vivo rat experiments were performed at Integrated Laboratory Systems (ILS, Research Triangle Park, NC). ILS's Institutional Animal Care and Use Committee approved all experimental procedures. Research was conducted in compliance with the Animal Welfare Act, and other Federal statutes and regulations relating to animals and experiments involving animals and adheres to principles stated in the “Guide for Care and Use of Laboratory Animals” as prepared by the Committee on Care and Use of Laboratory Animals of the Institute of Laboratory Animal Resources, National Research Council in facilities that are fully accredited by the Association for Assessment and Accreditation of Laboratory Animal Care, International. Male Sprague-Dawley rats (CD IGS [CRL:CD (SD)]) were purchased from Charles River Laboratories (Stone Ridge, N.Y.). Rats weighing 215-245 g (8 weeks old) were used. Briefly, rats were housed two per cage with a rat tunnel enrichment device (Bio-Serve, Frenchtown, N.J.). Rats were fed a Purina Rodent Diet No. 5002 (Ralston Purina Co., St. Louis, Mo.), supplied ad libitum. Animals received reverse osmosis-treated tap water (City of Durham, N.C.) ad libitum, which was changed at least once weekly. Controls in the animal rooms were set to maintain temperatures between 20-25° C. with a relative humidity of 30-70% and a 12-hour light/12-hour dark cycle, lights on at 6:00 AM. Clinically healthy animals were assigned to dose groups using a procedure that stratifies animals across groups by body weight such that mean body weight of each group was not statistically different from any other group using analysis of variance (Statistical Analysis System version 9.2, SAS Institute, Cary, N.C.). Animals were dosed by oral gavage for five consecutive days (+10 minutes from the previous day's dose administration time). Volume was based upon daily body weight.
(§2) Animals were observed cageside one hour following daily dose administration, then 1-2 times per day during dosing regimens. Body weights were measured daily prior to dose administration, and prior to euthanasia. Twenty-four hours after the final dose administration, animals were anesthetized with isoflurane then euthanized by exsanguination followed by decapitation. Livers were harvested at necropsy and weighed to within 0.1 g. One half of the left lobe of the liver was fixed in 10% formalin. The remaining half of the left lobe of the liver was flash frozen in liquid nitrogen, then stored below −70° C. Liver specimens were frozen in less than three minutes from time of death.

[2] = test system: liver; assay type: in vivo, Male Sprague-Dawley rats;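 on Cytoplasmic Alteration: Severity grades from None 0% through Minimal Mild Moderate to Marked over 80% tissue affected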;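 on Inflammation: Severity grades from None 0% through Minimal Mild Moderate to Marked over 80% tissue affected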;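 on vacuolation: Severity grades from None 0% through Minimal Mild Moderate to Marked over 80% tissue affected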
Procedure: All chemical compounds were diluted in corn oil (CAS No. 8001-30-7) (MP Biomedicals, LLC (Solon, Ohio)). The dose volume was 5 mL/kg. Doses were selected based on doses published in the DrugMatrix database, the National Toxicology Program reports, and ATSDR reports.
as §1
as §2, with “The remaining half of the left lobe of the liver was flash frozen in liquid nitrogen, then stored below −70° C. Liver specimens were frozen in less than three minutes from time of death.” left out

[3] = test system: 67 genes on the fibrosis gene panel; assay: Multiplexed fibrosis gene panel (QuantiGene 2.0 Plex / Bioplex) on liver RNA
[4] = histopathology score, individual animals, Carbon Tetrachloride 200, Bromobenzene 785, Dexamethasone 1 mg/kg
[5] = liver RNA, individual animals, Carbon Tetrachloride 200, Bromobenzene 785, Dexamethasone 1 mg/kg
[6] = liver, relative to the other pathologies

SMILES: Brc1ccccc1 [bromobenzene]
- Body weight gain over the five experimental dosing days ([1]; dose groups): decrease in body weight gain
- Body weight change over the five-day exposure interval ([1]; highest dose(s)): resulted in body weight loss over the study interval
- Combined histopathological scores as percent of animals with pathology ([2]; across dose groups, five days (figure legend)): dose-dependent increase in severe pathology
- Histopathological evidence of bile duct hyperplasia or fibrosis ([2]; any dose): did not cause histopathological evidence of bile duct hyperplasia or fibrosis at any dose
- Histopathological evidence of vacuolation and/or glycogen accumulation ([2]; exposures on the gene panel (FIG. 9 legend)): correlated with histopathological evidence of vacuolation and/or glyocgen accumulation
- Vacuolation ([2]; highest dose): varying degrees of vacuolation in all experimental animals
- Bile Duct Hyperplasia and Fibroplasia [2, 4]: 0
- Cytoplasmic Alteration [2, 4]: 1 (2×) and 2 and 3
- Inflammation [2, 4]: 1 (3×) and 2
- Vacuolation [2, 4]: 2 and 3 (2×) and 1
- Pcolce expression levels compared with fibrogenic compounds ([3]; liver): anti-correlated with corresponding gene expression levels induced by 4,4′-methylenedianiline and allyl alcohol
- Differential Expression of A2m [3, 5]: −4.054 and −4.444 and −2.844 and −1.670
- Differential Expression of Angptl3 [3, 5]: −0.864 and −1.104 and −0.499 and −0.518
- Differential Expression of Anxa2 [3, 5]: 1.771 and 1.226 and 1.391 and 0.783
- Differential Expression of Apoc [3, 5]: −0.325 and −0.372 and −0.172 and −0.338
- Differential Expression of Arf6 [3, 5]: 0.324 and 0.475 and 0.461 and 0.239
- Differential Expression of Arpc1b [3, 5]: −0.171 and −0.454 and −0.337 and −0.315
- Differential Expression of Arrb1 [3, 5]: −1.220 and −1.482 and −0.627 and −2.254
- Differential Expression of C1qb [3, 5]: −0.465 and −0.014 and 0.309 and 0.018
- Differential Expression of CD9 [3, 5]: −0.072 and −0.052 and 0.416 and 0.476
- Differential Expression of CD53 [3, 5]: −0.045 and −0.339 and 0.303 and −0.440
- Differential Expression of CP [3, 5]: −1.055 and −0.969 and −0.530 and −1.250
- Differential Expression of Capg [3, 5]: −0.835 and −0.762 and 0.053 and −1.140
- Differential Expression of Ccl2 [3, 5]: −0.790 and −1.244 and −1.328 and −1.622
- Differential Expression of Col1a1 [3, 5]: −0.659 and −0.336 and 0.149 and −0.231
- Differential Expression of Col1a2 [3, 5]: −0.901 and −0.686 and −0.378 and −0.731
- Differential Expression of Col4a1 [3, 5]: −0.512 and −0.387 and −0.163 and −0.340
- Differential Expression of Col5a2 [3, 5]: −0.708 and −0.778 and −0.542 and −0.877
- Differential Expression of Ctgf [3, 5]: −1.387 and −1.037 and −0.649 and −0.389
- Differential Expression of Cxcl1 [3, 5]: −0.610 and −0.492 and −0.386 and −0.930
- Differential Expression of Cxcl12 [3, 5]: −2.564 and −2.540 and −1.640 and −2.717
- Differential Expression of Cxcl16 [3, 5]: −0.140 and −1.150 and −0.275 and −0.468
- Differential Expression of Cyba [3, 5]: −0.761 and −0.590 and 0.049 and −0.752
- Differential Expression of Cyp2c11 [3, 5]: −7.760 and −8.696 and −7.411 and −6.882
- Differential Expression of Dsc2 [3, 5]: 0.800 and 0.827 and 0.610 and 0.624
- Differential Expression of Fam102b [3, 5]: −0.808 and −0.338 and −0.148 and −0.780
- Differential Expression of Fam105a [3, 5]: −0.461 and −0.047 and 0.188 and −0.207
- Differential Expression of Fbn1 [3, 5]: −1.303 and −1.090 and −0.632 and −1.013
- Differential Expression of Fn1 [3, 5]: −1.880 and −1.522 and −1.313 and −1.481
- Differential Expression of Fstl1 [3, 5]: −1.078 and −0.899 and −0.423 and −1.140
- Differential Expression of Fxyd5 [3, 5]: −0.189 and −0.159 and 0.283 and −0.184
- Differential Expression of Gpnmb [3, 5]: 1.906 and 1.987 and 2.373 and 1.454
- Differential Expression of Igfals [3, 5]: −2.524 and −2.336 and −2.083 and −3.007
- Differential Expression of Igfbp1 [3, 5]: 3.275 and 3.897 and 0.758 and 3.616
- Differential Expression of Igfbp2 [3, 5]: 0.339 and 0.249 and −0.180 and 0.559
- Differential Expression of Igfbp3 [3, 5]: −2.127 and −1.911 and −1.316 and −1.713
- Differential Expression of Itga1 [3, 5]: −0.672 and −0.525 and 0.257 and −0.880
- Differential Expression of Itgb2 [3, 5]: −0.722 and −0.914 and −0.301 and −1.032
- Differential Expression of Lame2 [3, 5]: −0.725 and −1.692 and −0.854 and −1.188
- Differential Expression of Lbp [3, 5]: 0.157 and 0.036 and 0.207 and −0.066
- Differential Expression of Len2 [3, 5]: −0.682 and −0.719 and −0.661 and −1.007
- Differential Expression of Lgals1 [3, 5]: −0.856 and −0.388 and −0.455 and −0.084
- Differential Expression of Lgals3 [3, 5]: 1.367 and 0.936 and 1.432 and 0.867
- Differential Expression of Lgals3bp [3, 5]: −0.415 and −0.105 and 0.126 and −0.427
- Differential Expression of Lox [3, 5]: −1.197 and −1.023 and −0.699 and −0.615
- Differential Expression of Lrp1 [3, 5]: −1.297 and −1.003 and −0.323 and −1.011
- Differential Expression of Lum [3, 5]: −0.152 and −0.296 and −0.116 and −0.530
- Differential Expression of Mmp2 [3, 5]: −0.086 and 0.177 and 0.235 and −0.151
- Differential Expression of Nid1 [3, 5]: −0.460 and −0.132 and 0.014 and −0.579
- Differential Expression of Pcolce [3, 5]: −1.230 and −0.974 and −0.145 and −1.087
- Differential Expression of Pkm2 [3, 5]: −0.142 and −0.085 and 0.069 and −0.110
- Differential Expression of Plat [3, 5]: 0.202 and 0.005 and 0.027 and 0.084
- Differential Expression of Plau [3, 5]: −1.049 and −0.402 and −0.470 and −1.553
- Differential Expression of Plod2 [3, 5]: −0.446 and −0.410 and −0.613 and −0.623
- Differential Expression of RT1-DMa [3, 5]: −0.569 and −0.589 and 0.149 and −0.606
- Differential Expression of RT1-Da [3, 5]: −0.205 and −0.563 and 0.533 and −0.554
- Differential Expression of S100A6 [3, 5]: −0.521 and 0.005 and −0.682 and 0.207
- Differential Expression of S100A11 [3, 5]: −0.356 and −0.292 and 0.061 and −0.441
- Differential Expression of Serpine1 [3, 5]: 0.153 and 0.825 and −0.550 and 0.552
- Differential Expression of Serping1 [3, 5]: −1.107 and −0.925 and −0.627 and −0.678
- Differential Expression of Slc25a24 [3, 5]: −0.143 and 0.149 and 0.189 and −0.325
- Differential Expression of Sod2 [3, 5]: 0.200 and −0.035 and 0.134 and 0.187
- Differential Expression of TagIn2 [3, 5]: −0.669 and −0.625 and 0.147 and −0.816
- Differential Expression of Tgfb1 [3, 5]: −0.596 and −0.528 and −0.330 and −0.639
- Differential Expression of Timp1 [3, 5]: −0.428 and −0.191 and −0.231 and −0.056
- Differential Expression of Vhl [3, 5]: 0.043 and −0.096 and −0.334 and −0.363
- Differential Expression of Vim [3, 5]: −0.148 and −0.045 and −0.109 and −0.327
- Differential Expression of Vtn [3, 5]: −1.353 and −1.261 and −0.746 and −0.854
- Panel genes downregulated (and upregulated in fibrogenic chemical-dose groups) ([3]; liver, 67-gene panel, 1.5-fold threshold): 12 genes
- A2m expression [3, 6]: downregulated
- Lcn2 expression [3, 6]: downregulated
- Pcolce expression [3, 6]: downregulated
